Data on 43 compounds can be found in US12428415B2, “Matriptase 2 inhibitors and uses thereof” (Disc Medicine, Inc., priority 2018, dated 2025).

The target of this test is T1, Human Recombinant Matriptase 2 (Homo sapiens, UniProt Q8IU80).
T1 construct: purchased Enzo Life Sciences (an in-house preparation was also used) ALX-201-752-1
T1 sequence (Q8IU80 1-811): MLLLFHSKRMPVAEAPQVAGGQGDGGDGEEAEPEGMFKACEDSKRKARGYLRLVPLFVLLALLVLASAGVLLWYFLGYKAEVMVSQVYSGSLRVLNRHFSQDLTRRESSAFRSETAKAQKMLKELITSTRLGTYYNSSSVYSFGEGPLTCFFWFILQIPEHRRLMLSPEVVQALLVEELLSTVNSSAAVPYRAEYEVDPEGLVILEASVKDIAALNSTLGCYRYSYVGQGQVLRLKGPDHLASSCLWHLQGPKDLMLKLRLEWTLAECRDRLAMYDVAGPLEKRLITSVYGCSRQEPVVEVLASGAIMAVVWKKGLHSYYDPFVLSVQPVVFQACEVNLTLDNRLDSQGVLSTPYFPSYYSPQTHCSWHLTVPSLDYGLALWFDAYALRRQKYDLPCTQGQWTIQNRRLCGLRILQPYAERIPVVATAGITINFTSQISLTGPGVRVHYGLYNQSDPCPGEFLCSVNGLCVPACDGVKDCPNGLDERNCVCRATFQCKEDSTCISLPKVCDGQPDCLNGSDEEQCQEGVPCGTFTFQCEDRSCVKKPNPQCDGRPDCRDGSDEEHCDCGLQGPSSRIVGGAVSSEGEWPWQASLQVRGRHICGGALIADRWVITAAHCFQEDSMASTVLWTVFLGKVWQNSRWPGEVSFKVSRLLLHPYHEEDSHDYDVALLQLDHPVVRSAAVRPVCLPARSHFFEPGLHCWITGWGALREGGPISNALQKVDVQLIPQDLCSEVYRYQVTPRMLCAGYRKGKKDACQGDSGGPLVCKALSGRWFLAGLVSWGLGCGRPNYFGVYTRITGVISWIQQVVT
Nature of the test: Matriptase 2 fluorescence based inhibition assay, Method A (100 mM TRIS pH 9, 1 mg/mL BSA). The format is biochemical. The following applies: 1 uM; Assay Used A; read-out: Mar-2 % inhibition at 1 uM. As for the experimental part: Test compounds were evaluated for their potential to inhibit Human Recombinant Matriptase 2 (in-house and commercial protein from Enzo Life Sciences—cat log -ALX-201-752-1) using fluorescence based assay. The concentration of Recombinant Matriptase 2 and the substrate used in the assay was: 7 nM (commercial) and 15 nM (Inhouse Matriptase 2) and 100 μM (Boc-Gln-Ala-Arg-7-amido-4-methyl coumarin hydrobromide—Cat log: B4153-Sigma) respectively. The assay buffer used was 100 mM TRIS pH 9, 1 mg/mL BSA. The assay was performed using 384 well black flat bottom plate from grenier (Cat log: 781076) at 25° C. The enzyme and compound was preincubated for 30 mins, plate was read 60 mins after substrate addition at wavelength Ex: 360/Em: 480 nm. The final assay volume was 20 μl. Stock solution of compounds were initially prepared in DMSO and appropriate dilutions were made for screening and IC50 determination (final DMSO conc in the assay was 1%). All the measurements were carried out using the Spectramax M5, Molecular devices. The compounds were screened at 1 and 10 μM concentration and IC50 was determined for the interested compounds.
To determine IC50 values, dose response curves were generated by plotting percentage inhibition as a function of inhibitor concentration and the data was fitted to sigmoidal non-linear regression equation (variable slope) using Graph Pad prism software V7.

For the compound `C[C@H](NC(=O)c1cc2ccc(C(=N)N)cc2n1Cc1ccc(C(N)=O)cc1)c1ccc(F)c(F)c1` [Compound I-94], the inhibition at 1 µM lay within 0 to 25%.
The value for `C[C@H](NC(=O)c1cc2ccc(C(=N)N)cc2n1Cc1ccc(C(N)=O)cc1)c1cccc(F)c1` [Compound I-95] was 0 to 25%; that for `CC[C@@H](NC(=O)c1cc2ccc(C(=N)N)cc2n1Cc1ccc(C(N)=O)cc1)c1ccccc1` [Compound I-96] was 25 to 50%.
For `N=C(N)c1ccc2cc(C(=O)Nc3ccc(N4CCC(F)(F)C4)cc3)n(Cc3ccc(C(N)=O)cc3)c2c1` [Compound I-97], the inhibition at 1 µM is 25 to 50%.
Under `C[C@H](NC(=O)c1cc2ccc(C(=N)N)cc2n1Cc1ccc(C(N)=O)cc1)c1ccc(Cl)cc1` [Compound I-98] stands 0 to 25%; under `CN(C)C(=O)COc1ccc(NC(=O)c2cc3ccc(C(=N)N)cc3n2Cc2ccc(C(N)=O)cc2)cc1` [Compound I-99], 25 to 50%; under `N=C(N)c1ccc2cc(C(=O)NCc3cccc(N4CCCC4)c3)n(Cc3ccc(C(N)=O)cc3)c2c1` [Compound I-100], 25 to 50%.
Under `N=C(N)c1ccc2cc(C(=O)Nc3ccc(N4CCCCC4)cc3)n(Cc3ccc(C(N)=O)cc3)c2c1` [Compound I-102] stands 0 to 25%; under `CN1CCC(N(C)C(=O)c2cc3ccc(C(=N)N)cc3n2Cc2ccc(C(N)=O)cc2)C1` (stereo not shown) [Compound I-103, 6-Carbamimidoyl-1-(4-carbamoylbenzyl)-N-methyl-N-(1-methylpyrrolidin-3-yl)-1H-indole-2-carboxamide], 0 to 25%; under `N=C(N)c1ccc2cc(C(=O)Nc3ccc(N4CCCC4)c(F)c3)n(Cc3ccc(C(N)=O)cc3)c2c1` [Compound I-104], 0 to 25%.
Under `N=C(N)c1ccc2cc(C(=O)Nc3ccc(N4CC[C@H](F)C4)cc3)n(Cc3ccc(C(N)=O)cc3)c2c1` [Compound I-105] stands 25 to 50%.
On to `N=C(N)c1ccc2cc(C(=O)Nc3ccc(C(=O)N4CC[C@H](F)C4)cc3)n(Cc3ccc(C(N)=O)cc3)c2c1` [Compound I-106], for which the inhibition at 1 µM lay within 0 to 25%.
Regarding `C[C@H](NC(=O)c1cc2ccc(C(=N)N)cc2n1Cc1ccc(C(N)=O)cc1)c1ccc(Cl)c(Cl)c1` [Compound I-107], the inhibition at 1 µM was in the range of 0 to 25%.
Under `N=C(N)c1ccc2cc(C(=O)Nc3cc(F)cc(N4CCCC4)c3)n(Cc3ccc(C(N)=O)cc3)c2c1` [Compound I-108] stands 0 to 25%; under `CC(C)(NC(=O)c1cc2ccc(C(=N)N)cc2n1Cc1ccc(C(N)=O)cc1)c1ccc(Cl)cc1` [Compound I-109], 0 to 25%; under `N=C(N)c1ccc2cc(C(=O)Nc3cccc(N4CCCCC4)c3)n(Cc3ccc(C(N)=O)cc3)c2c1` [Compound I-110], 0 to 25%.
The value for `N=C(N)c1ccc2cc(C(=O)Nc3ccc(F)c(Br)c3)n(Cc3ccc(C(N)=O)cc3)c2c1` [Compound I-111] was 0 to 25%; that for `N=C(N)c1ccc2cc(C(=O)NCc3ccc(N4CCCC4)cc3)n(Cc3ccc(C(N)=O)cc3)c2c1` [Compound I-112] was 25 to 50%.
The value for `C[C@@H](NC(=O)c1cc2ccc(C(=N)N)cc2n1Cc1ccc(C(N)=O)cc1)c1ccc(F)c(Cl)c1` [Compound I-113] was 0 to 25%; that for `N=C(N)c1ccc2cc(C(=O)Nc3ccc(CN4CCCC4)cc3)n(Cc3ccc(C(N)=O)cc3)c2c1` [Compound I-114] was 25 to 50%.
As to `N=C(N)c1ccc2cc(C(=O)Nc3cc(F)ccc3F)n(Cc3ccc(C(N)=O)cc3)c2c1` [Compound I-115], the inhibition at 1 µM was in the range of 0 to 25%.
On to `NC(=O)c1ccc(Cn2c(C(=O)Nc3cccc(N4CCCC4)c3)cc3ccc(C(N)=O)cc32)cc1` [Compound I-117, 1-(4-Carbamoylbenzyl)-N^2-(3-(pyrrolidin-1-yl)phenyl)-1H-indole-2,6-dicarboxamide], for which the inhibition at 1 µM was in the range of 0 to 25%.
The value for `COC(=O)NC(=N)c1ccc2cc(C(=O)Nc3ccc(N4CCCC4)cc3)n(Cc3ccc(C(N)=O)cc3)c2c1` [Compound I-118, Methyl ((1-(4-carbamoylbenzyl)-2-((4-(pyrrolidin-1-yl)phenyl)carbamoyl)-1H-indol-6-yl)(imino)methyl)carbamate] was 0 to 25%.
On to `CCOC(=O)NC(=N)c1ccc2cc(C(=O)Nc3ccc(N4CCCC4)cc3)n(Cc3ccc(C(N)=O)cc3)c2c1` [Compound I-119], for which the inhibition at 1 µM was 0 to 25%.
Under `CCOC(=O)NC(=N)c1ccc2cc(C(=O)Nc3cccc(N4CCCC4)c3)n(Cc3ccc(C(N)=O)cc3)c2c1` [Compound I-120] stands 0 to 25%.
Under `N=C(N)c1ccc2cc(C(=O)Nc3cccc(OCC4CC4)c3)n(Cc3ccc(C(N)=O)cc3)c2c1` [Compound I-121] stands 0 to 25%.
`N=C(N)c1ccc2cc(C(=O)Nc3cccc(N4CC[C@H](F)C4)c3)n(Cc3ccc(C(N)=O)cc3)c2c1` [Compound I-122]: the inhibition at 1 µM was 0 to 25%.
Consider `CO[C@H]1CCN(c2cccc(NC(=O)c3cc4ccc(C(=N)N)cc4n3Cc3ccc(C(N)=O)cc3)c2)C1` [Compound I-123], for which the inhibition at 1 µM was in the range of 0 to 25%.
For `C[C@H]1CCCN1c1cccc(NC(=O)c2cc3ccc(C(=N)N)cc3n2Cc2ccc(C(N)=O)cc2)c1` [Compound I-124], the inhibition at 1 µM lay in the range of 0 to 25%.
Under `CC(C)(O)[C@@H](NC(=O)c1cc2ccc(C(=N)N)cc2n1Cc1ccc(C(N)=O)cc1)c1ccccc1` [Compound I-125] stands 25 to 50%; under `N=C(N)c1ccc2cc(C(=O)Nc3cc(F)cc(Br)c3)n(Cc3ccc(C(N)=O)cc3)c2c1` [Compound I-126], 0 to 25%.
The value for `N=C(N)c1ccc2cc(C(=O)Nc3ccc(N4CC[C@@H](F)C4)cc3)n(Cc3ccc(C(N)=O)cc3)c2c1` [Compound I-127] was 25 to 50%.
Consider `N=C(N)c1ccc2cc(C(=O)Nc3cccc(N4CC[C@H](O)C4)c3)n(Cc3ccc(C(N)=O)cc3)c2c1` [Compound I-128], for which the inhibition at 1 µM fell in the range of 0 to 25%.
The value for `N=C(N)c1ccc2cc(C(=O)Nc3cccc(N4CCOCC4)c3)n(Cc3ccc(C(N)=O)cc3)c2c1` [Compound I-129] was 0 to 25%.
Under `N=C(N)c1ccc2cc(C(=O)Nc3cc(F)c(F)c(Br)c3)n(Cc3ccc(C(N)=O)cc3)c2c1` [Compound I-130] stands 0 to 25%; under `N=C(N)c1ccc2cc(C(=O)Nc3cccc([N+](=O)[O-])c3)n(Cc3ccc(C(N)=O)cc3)c2c1` [Compound I-131], 0 to 25%; under `N=C(N)c1ccc2cc(C(=O)Nc3cccc(-n4cccn4)c3)n(Cc3ccc(C(N)=O)cc3)c2c1` [Compound I-132], 25 to 50%.
`N=C(N)c1ccc2cc(C(=O)Nc3cccc(N4CCSCC4)c3)n(Cc3ccc(C(N)=O)cc3)c2c1` [Compound I-133]: the inhibition at 1 µM lay within 0 to 25%.
Under `N=C(N)c1ccc2cc(C(=O)Nc3cccc(-c4ccccn4)c3)n(Cc3ccc(C(N)=O)cc3)c2c1` [Compound I-134] stands 0 to 25%.
The value for `CN(C)CC(=O)O/N=C(\N)c1ccc2cc(C(=O)Nc3cccc(N4CCCC4)c3)n(Cc3ccc(C(N)=O)cc3)c2c1` [Compound I-135, 1-(4-Carbamoylbenzyl)-6-(N′-(2-(dimethylamino)acetoxy)carbamimidoyl)-N-(3-(pyrrolidin-1-yl)phenyl)-1H-indole-2-carboxamide] was 0 to 25%.
For the compound `NC(=O)c1ccc(Cn2c(C(=O)Nc3cccc(-c4ccccn4)c3)cc3ccc(C(N)=O)cc32)cc1` [Compound I-136, 1-(4-Carbamoylbenzyl)-N^2-(3-(pyridin-2-yl)phenyl)-1H-indole-2,6-dicarboxamide], the inhibition at 1 µM was in the range of 0 to 25%.
Under `N=C(N)c1ccc2cc(C(=O)Nc3cccc(-c4ncc[nH]4)c3)n(Cc3ccc(C(N)=O)cc3)c2c1` [Compound I-137] stands 25 to 50%; under `C#Cc1cccc(NC(=O)c2cc3ccc(C(=N)N)cc3n2Cc2ccc(C(N)=O)cc2)c1` [Compound I-138], 0 to 25%.

One may read the inhibition as the drop in the measured response relative to a control, in per cent.
